# Measured values published in patent publication US9637543B2, “HER3 antibodies and uses thereof” (THE UAB RESEARCH FOUNDATION, priority 2011, dated 2017).
# “Also recorded” adds a separate entry of the source.
# What was measured:
# HER3 [1] = target: T1, HER3 (Homo sapiens, UniProt P21860); assay: NRG1-induced phosphorylation of HER3 in pancreatic cancer cell lines; assay type: cell-based; design: endogenous in cells; host or cells: N87, BT474, ZR75-30, Panc 2.03, A549 and a panel of human cancer cell lines
# T1 sequence (P21860 20-1342): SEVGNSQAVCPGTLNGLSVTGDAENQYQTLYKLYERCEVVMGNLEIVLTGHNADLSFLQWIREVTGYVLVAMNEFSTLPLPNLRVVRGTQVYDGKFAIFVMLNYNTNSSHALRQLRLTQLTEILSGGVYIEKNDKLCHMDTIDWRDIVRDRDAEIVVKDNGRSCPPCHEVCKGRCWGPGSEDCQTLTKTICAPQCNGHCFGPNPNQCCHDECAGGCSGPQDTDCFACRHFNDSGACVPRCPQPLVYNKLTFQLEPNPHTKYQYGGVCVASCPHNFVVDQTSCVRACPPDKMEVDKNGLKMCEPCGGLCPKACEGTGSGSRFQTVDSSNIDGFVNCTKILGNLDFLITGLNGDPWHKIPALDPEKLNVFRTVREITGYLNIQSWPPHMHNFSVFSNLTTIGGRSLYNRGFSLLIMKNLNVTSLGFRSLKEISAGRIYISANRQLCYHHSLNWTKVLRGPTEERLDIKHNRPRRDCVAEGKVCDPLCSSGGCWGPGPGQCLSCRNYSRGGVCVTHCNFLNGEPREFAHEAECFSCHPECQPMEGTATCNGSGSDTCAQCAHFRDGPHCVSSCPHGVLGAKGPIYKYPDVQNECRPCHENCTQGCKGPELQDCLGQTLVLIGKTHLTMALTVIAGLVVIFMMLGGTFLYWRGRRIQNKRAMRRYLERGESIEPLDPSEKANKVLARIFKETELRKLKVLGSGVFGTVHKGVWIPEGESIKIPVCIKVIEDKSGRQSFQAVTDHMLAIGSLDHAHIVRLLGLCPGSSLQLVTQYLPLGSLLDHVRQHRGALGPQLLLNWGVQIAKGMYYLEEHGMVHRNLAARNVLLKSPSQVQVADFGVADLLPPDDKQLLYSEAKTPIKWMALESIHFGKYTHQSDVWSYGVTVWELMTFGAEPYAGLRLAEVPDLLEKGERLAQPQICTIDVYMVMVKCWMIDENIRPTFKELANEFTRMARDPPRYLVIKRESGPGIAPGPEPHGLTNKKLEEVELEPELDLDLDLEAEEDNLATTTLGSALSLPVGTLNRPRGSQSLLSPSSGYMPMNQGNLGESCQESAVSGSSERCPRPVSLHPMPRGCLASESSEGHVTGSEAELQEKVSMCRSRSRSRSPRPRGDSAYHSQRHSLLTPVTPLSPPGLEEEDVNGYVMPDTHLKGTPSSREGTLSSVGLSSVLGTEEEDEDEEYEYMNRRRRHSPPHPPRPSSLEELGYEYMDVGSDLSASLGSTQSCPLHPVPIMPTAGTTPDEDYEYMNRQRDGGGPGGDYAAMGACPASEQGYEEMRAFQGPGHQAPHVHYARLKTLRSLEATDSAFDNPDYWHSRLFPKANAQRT
# HER2 [2] = target: T2, HER2 (Homo sapiens, UniProt P04626); assay: NRG1-induced phosphorylation of HER2 in pancreatic cancer cell lines; assay type: cell-based; design: endogenous in cells
# T2 sequence (P04626 23-1255): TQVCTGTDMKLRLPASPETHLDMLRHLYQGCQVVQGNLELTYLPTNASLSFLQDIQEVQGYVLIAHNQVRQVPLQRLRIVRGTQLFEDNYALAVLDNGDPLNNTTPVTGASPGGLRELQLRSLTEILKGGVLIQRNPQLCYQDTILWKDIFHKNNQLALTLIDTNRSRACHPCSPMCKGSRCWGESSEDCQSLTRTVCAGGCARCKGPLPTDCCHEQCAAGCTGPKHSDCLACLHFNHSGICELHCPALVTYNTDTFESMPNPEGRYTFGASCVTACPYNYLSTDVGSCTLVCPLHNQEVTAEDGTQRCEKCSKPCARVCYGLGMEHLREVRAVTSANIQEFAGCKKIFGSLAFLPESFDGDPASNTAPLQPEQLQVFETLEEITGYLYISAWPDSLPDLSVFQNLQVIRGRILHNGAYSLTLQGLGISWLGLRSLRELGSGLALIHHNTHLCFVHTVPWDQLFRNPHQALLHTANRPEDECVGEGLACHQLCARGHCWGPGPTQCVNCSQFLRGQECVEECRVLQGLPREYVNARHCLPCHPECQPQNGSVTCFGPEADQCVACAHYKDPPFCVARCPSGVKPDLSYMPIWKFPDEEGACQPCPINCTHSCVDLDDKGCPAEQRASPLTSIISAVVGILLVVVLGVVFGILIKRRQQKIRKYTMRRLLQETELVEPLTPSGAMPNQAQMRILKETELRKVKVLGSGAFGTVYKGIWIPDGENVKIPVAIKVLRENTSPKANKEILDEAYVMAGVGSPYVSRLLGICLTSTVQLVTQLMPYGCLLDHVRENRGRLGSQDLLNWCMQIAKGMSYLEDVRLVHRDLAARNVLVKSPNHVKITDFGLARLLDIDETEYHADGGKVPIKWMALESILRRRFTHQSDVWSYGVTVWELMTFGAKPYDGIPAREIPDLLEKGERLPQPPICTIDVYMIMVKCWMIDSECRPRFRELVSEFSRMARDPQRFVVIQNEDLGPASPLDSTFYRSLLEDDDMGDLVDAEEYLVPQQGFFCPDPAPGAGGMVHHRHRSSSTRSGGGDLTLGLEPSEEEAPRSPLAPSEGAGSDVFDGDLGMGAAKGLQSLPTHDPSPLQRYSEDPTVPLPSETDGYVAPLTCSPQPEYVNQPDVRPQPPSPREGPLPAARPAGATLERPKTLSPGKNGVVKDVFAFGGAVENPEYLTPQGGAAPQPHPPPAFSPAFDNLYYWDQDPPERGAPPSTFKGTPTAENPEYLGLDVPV
# HER2 [3] = target: T2, HER2; assay: HER2 autophosphorylation in pancreatic cancer cell lines; assay type: cell-based; design: endogenous in cells; conditions: single agents
# HER2 [4] = target: T2, HER2; assay: HER2 tyrosine phosphorylation ELISA, antibodies with or without lapatinib; assay type: cell-based; design: endogenous in cells; host or cells: N87 gastric cancer cells; ZR75-30 breast cancer cells; conditions: 24 hours
# [5] = tested on: N87 human gastric cancer xenograft; assay: N87 human gastric cancer xenograft model; assay type: in vivo; conditions: lapatinib alone versus antibodies alone
# HER3 [6] = target: T1, HER3; assay: HER3 autophosphorylation in pancreatic cancer cell lines; assay type: cell-based; design: endogenous in cells; host or cells: N87, BT474, ZR75-30, Panc 2.03, A549 and a panel of human cancer cell lines; conditions: single agents
compound,measurement,setting,value
"CS(=O)(=O)CCNCc1ccc(-c2ccc3ncnc(Nc4ccc(OCc5cccc(F)c5)c(Cl)c4)c3c2)o1 [lapatinib, reference compound]",NRG1-induced phosphorylation of HER3,HER3 [1],only partially inhibited NRG1-induced phosphorylation of HER3; also recorded: partially reduced NRG-1-induced phosphorylation
same,NRG1-induced phosphorylation of HER2,HER2 [2],inhibited NRG1-induced phosphorylation of HER2; also recorded: inhibited NRG-1-induced phosphorylation of HER2
same,autophosphorylation of HER2,HER2 [3],partially inhibited autophosphorylation of HER2
same,tyrosine phosphorylation level of HER2,"HER2 [4]; N87 cells, 100 nM lapatinib with the antibodies",reduced
same,tyrosine phosphorylation levels of HER2,"HER2 [4]; ZR75-30 cells, 100 nM lapatinib with the antibodies alone or in combination",reduced tyrosine phosphorylation levels
same,tumor volume,[5],reduced tumor volume more than the administration of the combination of 1A5 and 3D4 antibodies
same,autophosphorylation of HER3,HER3 [6],but not erlotinib and lapatinib inhibited autophosphorylation of HER3
"C#Cc1cccc(Nc2ncnc3cc(OCCOC)c(OCCOC)cc23)c1 [erlotinib, reference compound]",autophosphorylation of HER3,HER3 [6],but not erlotinib and lapatinib inhibited autophosphorylation of HER3
